Measured values as given in patent US10683292B2, “Purine and 3-deazapurine analogues as choline kinase inhibitors” (NERVIANO MEDICAL SCIENCES S.R.L., priority 2016, dated 2020).
Structures can show the parent of a compound that is named as a salt. Where two headings read alike, the source gives them in different places.

Assays:
[1] = test system: MDA-MB-468 breast cancer cell line; experiment: Phosphocholine determination assay (mechanism of action in cells), cell extracts; assay type: cell-based; conditions: 24 h
Experimental: Phosphocholine Determination Assay (Mechanism of Action in Cells)
After 24 h, fresh medium and a compound of general formula (I) were added for further 24 h. At the end of the treatment, the cells were trypsinised, counted and the diameter was determined using a Coulter Counter (Multisizer 3, Beckman). […] Then, 0.7 mL ice-cold absolut EtOH were added (final ratio EtOH/H2O 70:30, v/v). After 24 h at −20° C. the samples were sonicated and centrifuged at 14,000×g for 30 minutes.
Phosphocholine concentration levels were assessed in the supernatants using an Ultra High Pressure Liquid Chromatography system (UPLC®, Waters) coupled with a triple quadrupoles mass spectrometer (TQD, Waters) operating in single reaction monitoring mode (SRM). Analyses were performed using Acquity HSS T3 column 2.1×50 mm column, 1.8 μm particle size. […] Waters TQD triple quad mass spectrometer was equipped with an electrospray ion source operating in the positive mode. Source parameters were set as follows: desolvation gas flow 1000 L/h, cone gas flow 50 L/h; collision gas flow 0.2 mL/min; source temperature 130° C.; desolvation temperature 450° C. Dimethyl glicine (DMG) was added to samples as internal standard at 100 μM final concentration. […] The concentration of PCho in the sample was normalized to the total volume of cells (number cells×volume of single cell considered like a sphere).

Δ49N-hChoKα = biological target: T1, Δ49N-hChoKα (Homo sapiens, UniProt P35790); experiment: Biochemical kinase inhibition assay (Kinase-Glo Luminescent Kinase Assay) on Δ49N-hChoKα
T1 construct: cDNA fragment 362-1534, corresponding to aminoacids 50-457; GST (N, cleaved yes); Prescission Protease recognition site (N, cleaved yes); made in house; host or cells: Escherichia coli BL21pLysS (DE3)

hChoKβ FL = biological target: T2, hChoKβ FL (Homo sapiens, UniProt Q9Y259); experiment: Biochemical kinase inhibition assay (Kinase-Glo Luminescent Kinase Assay) on hChoKβ FL; conditions: ATP 5 μM, choline 20 μM, 60 minutes at rt; read-out: IC50 ChoKβ
T2 construct: hChoKβ full length (FL), corresponding to aminoacids 2-395; GST (N, cleaved yes); Prescission Protease recognition site (N, cleaved yes); made in house; host or cells: Escherichia coli BL21pLysS (DE3)
Experimental: The biochemical activity of compounds against Δ49N-ChoKα and ChoKβ FL were determined using the Kinase-Glo™ Luminescent Kinase Assay (Promega cat. V6711).
Compounds were 3-fold serially diluted from 10 to 0.0005 μM, then incubated for 60 minutes at rt in the presence of ATP 5 μM, choline (5 μM for ChoKα and 20 μM for ChoKβ) and enzyme in a final volume of 19 μL of kinase buffer (50 mM Hepes pH 7.5, 10 mM MgCl2, 1 mM DTT, 3 μM Na3VO4 and 0.2 mg/mL BSA). The final concentration of DMSO was 1%.
At the end of the incubation, an amount of 19 μL of KinaseGlo Reagent was added to each well to stop the reaction and after 30 minutes the luminescence signal was measured using ViewLux reader (Perkin Elmer).
The data per each molecule are analyzed by an internally customized version of the SW package “Assay Explorer” which provides sigmoidal fittings of the ten-dilution curves for IC50 determination using a 4 parameter logistic equation: y=bottom+(top−bottom)/(1+10^((log IC50−x)*slope)) where x is the logarithm of the inhibitor concentration, y is the response; y starts at bottom and goes to top with a sigmoid shape.

[2] = ATP 5 μM, choline 5 μM, 60 minutes at rt, read-out: IC50 ChoKα

T2 sequence (Q9Y259 2-395): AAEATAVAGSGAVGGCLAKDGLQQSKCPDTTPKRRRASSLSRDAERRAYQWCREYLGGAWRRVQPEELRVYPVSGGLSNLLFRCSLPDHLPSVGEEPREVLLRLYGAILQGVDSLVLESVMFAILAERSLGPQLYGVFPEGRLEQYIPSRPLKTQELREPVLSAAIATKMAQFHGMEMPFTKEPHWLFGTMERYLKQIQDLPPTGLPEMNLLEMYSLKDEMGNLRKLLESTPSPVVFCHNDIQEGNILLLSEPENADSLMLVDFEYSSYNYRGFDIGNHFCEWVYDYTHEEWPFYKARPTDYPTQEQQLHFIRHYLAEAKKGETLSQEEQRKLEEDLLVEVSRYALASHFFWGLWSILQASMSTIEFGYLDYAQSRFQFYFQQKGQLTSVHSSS
T1 sequence (P35790 50-457, stated change not applied): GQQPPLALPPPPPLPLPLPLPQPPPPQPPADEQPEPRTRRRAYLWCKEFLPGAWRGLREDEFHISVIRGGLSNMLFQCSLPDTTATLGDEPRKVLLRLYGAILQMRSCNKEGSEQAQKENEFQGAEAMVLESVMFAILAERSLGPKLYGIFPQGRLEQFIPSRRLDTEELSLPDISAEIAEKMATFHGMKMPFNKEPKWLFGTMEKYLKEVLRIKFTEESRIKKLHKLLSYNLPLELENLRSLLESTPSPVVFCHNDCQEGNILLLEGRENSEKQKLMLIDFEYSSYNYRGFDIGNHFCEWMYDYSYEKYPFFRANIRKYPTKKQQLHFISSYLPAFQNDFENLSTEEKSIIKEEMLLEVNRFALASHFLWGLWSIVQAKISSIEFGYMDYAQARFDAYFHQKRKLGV

| Compound | IC50 (Δ49N-hChoKα; [2]) | IC50 (hChoKβ FL) | other results |
| --- | --- | --- | --- |
| CN1CCc2nc(NC(=O)[C@H]3CC[C@@H](n4cnc5c(N)nc(F)nc54)CC3)sc2C1 [cpd 179, cis-4-(6-amino-2-fluoro-9H-purin-9-yl)-N-(5-methyl-4,5,6,7-tetrahydro[1,3]thiazolo[5,4-c]pyridin-2-yl)cyclohexanecarboxamide] | – | – | [Phosphocholine] in MDA-MB-468 cell extracts ([1]; compound 0.08 μM): 6.40 mM; [Phosphocholine] in MDA-MB-468 cell extracts ([1]; compound 0.4 μM): 3.27 mM; [Phosphocholine] in MDA-MB-468 cell extracts ([1]; compound 2 μM): 0.69 mM |
| C#Cc1nc(N)c2ncn([C@H]3CC[C@@H](C(=O)Nc4nc5c(OC)cccc5s4)CC3)c2n1 [cpd 119, cis-4-(6-amino-2-ethynyl-9H-purin-9-yl)-N-(4-methoxy-1,3-benzothiazol-2-yl)cyclohexanecarboxamide] | 21 nM | 7700 nM | – |
| Cc1csc(NC(=O)[C@H]2CC[C@@H](n3cnc4c(N)nc(-c5cccc(OCc6ccccc6)c5)nc43)CC2)n1 [cpd 100, cis-4-{6-amino-2-[3-(benzyloxy)phenyl]-9H-purin-9-yl}-N-(4-methyl-1,3-thiazol-2-yl)cyclohexanecarboxamide] | 248 nM | > 10000 nM | – |
| COC(=O)[C@H]1CC[C@@H](n2cnc3c(N)nc(Cl)nc32)CC1 [cpd 88, methyl cis-4-(6-amino-2-chloro-9H-purin-9-yl)cyclohexanecarboxylate] | 524 nM | > 10000 nM | – |
| Cc1csc(NC(=O)[C@H]2CC[C@@H](n3cnc4c(N)nc(-c5ccncc5)nc43)CC2)n1 [cpd 81, cis-4-[6-amino-2-(pyridin-4-yl)-9H-purin-9-yl]-N-(4-methyl-1,3-thiazol-2-yl)cyclohexanecarboxamide] | 125 nM | > 10000 nM | – |
| C#Cc1nc(N)c2ncn([C@H]3CC[C@@H](C(=O)Nc4nc(C)cs4)CC3)c2n1 [cpd 77, cis-4-(6-amino-2-ethynyl-9H-purin-9-yl)-N-(4-methyl-1,3-thiazol-2-yl)cyclohexanecarboxamide] | 18 nM | 5970 nM | – |
| COc1cccc(NC(=O)[C@H]2CC[C@@H](n3cnc4c(N)nc(-c5ccc(C(=O)Nc6ccc(CN7CCC(N(C)C)CC7)cc6)cc5)nc43)CC2)c1 [cpd 33, 4-(6-amino-9-{cis-4-[(3-methoxyphenyl)carbamoyl]cyclohexyl}-9H-purin-2-yl)-N-(4-{[4-(dimethylamino)piperidin-1-yl]methyl}phenyl)benzamide] | 21 nM | 4570 nM | – |
| Nc1nc(Cl)nc2c1ncn2[C@H]1CC[C@@H](C(=O)Nc2nc(CC(=O)N3CCC(N4CCCCC4)CC3)cs2)CC1 [cpd 86, cis-4-(6-amino-2-chloro-9H-purin-9-yl)-N-{4-[2-(1,4′-bipiperidin-1′-yl)-2-oxoethyl]-1,3-thiazol-2-yl}cyclohexanecarboxamide] | 52 nM | > 10000 nM | – |
| Cc1csc(NC(=O)[C@H]2CC[C@@H](n3cnc4c(N)nc(-c5cccc(C(=O)Nc6ccc(CN7CCC(N(C)C)CC7)cc6)c5)nc43)CC2)n1 [cpd 85, 3-(6-amino-9-{cis-4-[(4-methyl-1,3-thiazol-2-yl)carbamoyl]cyclohexyl}-9H-purin-2-yl)-N-(4-{[4-(dimethylamino)piperidin-1-yl]methyl}phenyl)benzamide bis-trifluoroacetate] | 11 nM | > 10000 nM | – |
| Nc1nc(Cl)nc2c1ncn2[C@H]1CC[C@@H](C(N)=O)CC1 [cpd 53, cis-4-(6-amino-2-chloro-9H-purin-9-yl)cyclohexanecarboxamide] | 855 nM | > 10000 nM | – |
| Cc1cccc(NC(=O)[C@H]2CC[C@@H](n3cnc4c(N)nc(-c5ccncc5)nc43)CC2)c1 [cpd 50, cis-4-[6-amino-2-(pyridin-4-yl)-9H-purin-9-yl]-N-(3-methylphenyl)cyclohexanecarboxamide] | 311 nM | > 10000 nM | – |
| CS(=O)(=O)c1ccc2nc(NC(=O)[C@H]3CC[C@@H](n4cnc5c(N)nc(Cl)nc54)CC3)sc2c1 [cpd 89, cis-4-(6-amino-2-chloro-9H-purin-9-yl)-N-[6-(methylsulfonyl)-1,3-benzothiazol-2-yl]cyclohexanecarboxamide] | 64 nM | 4160 nM | – |
| CN1CCN(Cc2ccc(NC(=O)Cc3ccc(NC(=O)[C@H]4CC[C@@H](n5cnc6c(N)nc(Cl)nc65)CC4)cc3)cc2)CC1 [cpd 36, cis-4-(6-amino-2-chloro-9H-purin-9-yl)-N-{4-[2-({4-[(4-methylpiperazin-1-yl)methyl]phenyl}amino)-2-oxoethyl]phenyl}cyclohexanecarboxamide] | 53 nM | 1350 nM | – |
| COc1cccc2sc(NC(=O)[C@H]3CC[C@@H](n4cnc5c(N)nc(F)nc54)CC3)nc12 [cpd 126, cis-4-(6-amino-2-fluoro-9H-purin-9-yl)-N-(4-methoxy-1,3-benzothiazol-2-yl)cyclohexanecarboxamide] | 31 nM | > 10000 nM | – |
| Nc1nc(Cl)nc2c1ncn2[C@H]1CC[C@@H](C(=O)Nc2nc3c(s2)[C@H]2CC[C@@H](C3)N2)CC1 [cpd 189, cis-4-(6-amino-2-chloro-9H-purin-9-yl)-N-[(5S,8R)-5,6,7,8-tetrahydro-4H-5,8-epiminocyclohepta[d][1,3]thiazol-2-yl]cyclohexanecarboxamide hydrochloride] | – | > 10000 nM | IC50 (Δ49N-hChoKα): 27 nM |
| CC(C)(C)OC(=O)N1[C@H]2CC[C@@H]1c1sc(NC(=O)[C@H]3CC[C@@H](n4cnc5c(N)nc(Cl)nc54)CC3)nc1C2 [cpd 187, tert-butyl (5S,8R)-2-({[cis-4-(6-amino-2-chloro-9H-purin-9-yl)cyclohexyl]carbonyl}amino)-5,6,7,8-tetrahydro-4H-5,8-epiminocyclohepta[d][1,3]thiazole-9-carboxylate] | – | 5630 nM | IC50 (Δ49N-hChoKα): 29 nM |

Further lines, with some results ahead:

| IC50 (Δ49N-hChoKα; [2]) | IC50 (hChoKβ FL) | Compound | other results |
| --- | --- | --- | --- |
| 197 nM | > 10000 nM | Nc1nc2c(OC(=O)[C@H]3CC[C@@H](n4cnc5c(N)nc(F)nc54)CC3)cccc2s1 [cpd 160, 2-amino-1,3-benzothiazol-4-yl cis-4-(6-amino-2-fluoro-9H-purin-9-yl)cyclohexanecarboxylate] | – |
| 9 nM | > 10000 nM | Nc1nc(Cl)nc2c1ncn2[C@H]1CC[C@@H](C(=O)Nc2nc3c(s2)CC(F)(F)CC3)CC1 [cpd 188, cis-4-(6-amino-2-chloro-9H-purin-9-yl)-N-(6,6-difluoro-4,5,6,7-tetrahydro-1,3-benzothiazol-2-yl)cyclohexanecarboxamide] | – |
| 17 nM | 1990 nM | CC(=O)Nc1ccc2nc(NC(=O)[C@H]3CC[C@@H](n4cnc5c(N)nc(Cl)nc54)CC3)sc2c1 [cpd 183, cis-N-[6-(acetylamino)-1,3-benzothiazol-2-yl]-4-(6-amino-2-chloro-9H-purin-9-yl)cyclohexanecarboxamide] | – |
| 38 nM | > 10000 nM | Nc1nc(F)nc2c1ncn2[C@H]1CC[C@@H](C(=O)Nc2nc3ccc(F)cc3s2)CC1 [cpd 128, cis-4-(6-amino-2-fluoro-9H-purin-9-yl)-N-(6-fluoro-1,3-benzothiazol-2-yl)cyclohexanecarboxamide] | – |
| 66 nM | > 10000 nM | Nc1nc(Cl)nc2c1ncn2[C@H]1CC[C@@H](C(=O)Nc2nc3ccc(OC(F)(F)F)cc3s2)CC1 [cpd 181, cis-4-(6-amino-2-chloro-9H-purin-9-yl)-N-[6-(trifluoromethoxy)-1,3-benzothiazol-2-yl]cyclohexanecarboxamide] | – |
| 54 nM | > 10000 nM | COc1nc(N)c2ncn([C@H]3CC[C@@H](C(=O)Nc4nc5ccc(F)cc5s4)CC3)c2n1 [cpd 170, cis-4-(6-amino-2-methoxy-9H-purin-9-yl)-N-(6-fluoro-1,3-benzothiazol-2-yl)cyclohexanecarboxamide] | – |
| 49 nM | > 10000 nM | Nc1nc(Cl)nc2c1ncn2[C@H]1CC[C@@H](C(=O)Nc2nc3ccc(Br)cc3s2)CC1 [cpd 175, cis-4-(6-amino-2-chloro-9H-purin-9-yl)-N-(6-bromo-1,3-benzothiazol-2-yl)cyclohexanecarboxamide] | – |
| 97 nM | > 10000 nM | Nc1nc(Cl)nc2c1ncn2[C@H]1CC[C@@H](C(=O)Nc2nc3ccncc3s2)CC1 [cpd 138, cis-4-(6-amino-2-chloro-9H-purin-9-yl)-N-([1,3]thiazolo[5,4-c]pyridin-2-yl)cyclohexanecarboxamide hydrochloride] | – |
| 43 nM | 5470 nM | Nc1nc(Cl)nc2c1ncn2[C@H]1CC[C@@H](C(=O)Nc2nc3cc4c(cc3s2)OCO4)CC1 [cpd 186, cis-4-(6-amino-2-chloro-9H-purin-9-yl)-N-([1,3]dioxolo[4,5-f][1,3]benzothiazol-6-yl)cyclohexanecarboxamide] | – |
| 105 nM | 5800 nM | Nc1nc(Cl)nc2c1ncn2[C@H]1CC[C@@H](C(=O)Nc2nc3cc(F)c(F)c(F)c3s2)CC1 [cpd 171, cis-4-(6-amino-2-chloro-9H-purin-9-yl)-N-(5,6,7-trifluoro-1,3-benzothiazol-2-yl)cyclohexanecarboxamide] | – |
| 73 nM | > 10000 nM | Cc1csc(NC(=O)[C@H]2CC[C@@H](n3cnc4c(N)nc(C(N)=O)nc43)CC2)n1 [cpd 146, 6-amino-9-{cis-4-[(4-methyl-1,3-thiazol-2-yl)carbamoyl]cyclohexyl}-9H-purine-2-carboxamide] | – |
| 45 nM | > 10000 nM | Nc1nc(Cl)nc2c1ncn2[C@H]1CC[C@@H](C(=O)Nc2nc3cc(F)c(F)cc3s2)CC1 [cpd 168, cis-4-(6-amino-2-chloro-9H-purin-9-yl)-N-(5,6-difluoro-1,3-benzothiazol-2-yl)cyclohexanecarboxamide] | – |
